From ChEMBL document CHEMBL5537161, “Structure-Guided Design, Synthesis, and Antivirulence Assessment of Covalent Staphylococcus aureus Sortase A Inhibitors” (J Med Chem, 2024)
≈ marks a conversion by molar mass, not a printed value.

Tests used:
Sortase A [1] = molecular target: T1, Sortase A (Staphylococcus aureus, UniProt Q9S446, N24DEL); assay: Inhibition of Staphylococcus aureus sortase A N24 deletion mutant using Abz-LPATG-Dnp as substrate preincubated for 20 mins followed by substrate addition by FRET assay
Staphylococcus aureus = assay: Bactericidal activity against Staphylococcus aureus Newman assessed as reduction in bacterial growth incubated for 16 to 18 hrs; type: functional; conditions: time 16-18 hrs
Sortase A [2] = molecular target: T1, Sortase A; assay: Inhibition of Staphylococcus aureus Sortase A N24 deletion mutant transpeptidation using IsdA64-323 as substrate preincubated for 20 mins followed by substrate addition and measured after 1.5 hrs by SDS-PAGE analysis

`NC(=O)COc1ccc(/C=C/C=C2C(=O)NC(=O)NC2=O)cc1` was tested, and the IC50 (Sortase A [1]) was 0.9 µM and the MIC (Staphylococcus aureus) was greater than 128 mg/L.
`O=C1NC(=O)C(=C/C=C/c2cccc(Cl)c2)C(=O)N1` gave an IC50 (Sortase A [1]) of 1 µM and an MIC (Staphylococcus aureus) of 64 mg/L (≈ 231 µM).
With `CCCOc1ccc(/C=C/C=C2C(=O)NC(=O)NC2=O)cc1` the IC50 (Sortase A [2]) was 8.1 µM, the IC50 (Sortase A [1]) was 0.7 µM and the MIC (Staphylococcus aureus) was greater than 128 mg/L.
With `CC(C)C[C@H](NC(=O)OCc1ccccc1)C(=O)Oc1ccc(/C=C/C=C2C(=O)NC(=O)NC2=O)cc1` the IC50 (Sortase A [1]) was 5.6 µM and the MIC (Staphylococcus aureus) was 64 mg/L (≈ 127 µM).
In the case of `O=C1NC(=O)C(=C/C=C/c2ccc(OCc3ccc(OCc4ccccc4)cc3)cc2)C(=O)N1`, the IC50 (Sortase A [1]) is reported as greater than 50 µM and the MIC (Staphylococcus aureus) is reported as greater than 128 mg/L.
Work on `COc1ccc(C=C2C(=O)NC(=O)NC2=O)cc1` yielded an IC50 (Sortase A [1]) greater than 50 µM and an MIC (Staphylococcus aureus) greater than 128 mg/L.
For `CSCC[C@H](NC(=O)OCc1ccccc1)C(=O)Oc1ccc(/C=C/C=C2C(=O)NC(=O)NC2=O)cc1`, the IC50 (Sortase A [1]) was 6.9 µM and the MIC (Staphylococcus aureus) was 128 mg/L (≈ 244 µM).
Work on `O=C1NC(=O)C(=C/C=C/c2ccco2)C(=O)N1` yielded an IC50 (Sortase A [1]) of 1.4 µM and an MIC (Staphylococcus aureus) greater than 128 mg/L.
With `O=C1NC(=O)C(=C/C=C/c2ccc(OCc3ccc(C(F)(F)F)cc3)cc2)C(=O)N1` the IC50 (Sortase A [1]) was 6.5 µM and the MIC (Staphylococcus aureus) was greater than 128 mg/L.
Compound `O=C1NC(=O)C(=C/C=C/c2ccc(OCc3ccsc3)cc2)C(=O)N1` has an IC50 (Sortase A [1]) of 0.7 µM and an MIC (Staphylococcus aureus) greater than 128 mg/L.
`Cc1ccc(/C=C/C=C2C(=O)NC(=O)NC2=O)cc1` gave an IC50 (Sortase A [1]) of 1 µM and an MIC (Staphylococcus aureus) of 128 mg/L (≈ 499 µM).
Compound `O=C1NC(=O)C(=C/C=C/c2ccc(C(F)(F)F)cc2)C(=O)N1` has an IC50 (Sortase A [1]) of 1.4 µM and an MIC (Staphylococcus aureus) of 64 mg/L (≈ 206 µM).
`O=C1NC(=O)C(=C/C=C/c2ccc(OCc3ccc([N+](=O)[O-])cc3)cc2)C(=O)N1` showed an IC50 (Sortase A [1]) of 1.3 µM and an MIC (Staphylococcus aureus) greater than 128 mg/L.
With `CC(C)CC=C1C(=O)NC(=O)NC1=O` the IC50 (Sortase A [1]) was greater than 50 µM and the MIC (Staphylococcus aureus) was greater than 128 mg/L.
In the case of `O=C1NC(=O)C(=C/C=C/c2ccc(OCC(=O)c3ccco3)cc2)C(=O)N1`, the IC50 (Sortase A [2]) is reported as 24.6 µM, the IC50 (Sortase A [1]) is reported as 0.8 µM and the MIC (Staphylococcus aureus) is reported as greater than 128 mg/L.
With `Cc1ccc(COc2ccc(/C=C/C=C3C(=O)NC(=O)NC3=O)cc2)cc1` the IC50 (Sortase A [1]) was 1.1 µM and the MIC (Staphylococcus aureus) was greater than 128 mg/L.
Work on `COc1ccc(/C=C/C=C2C(=O)NC(=S)NC2=O)cc1` yielded an IC50 (Sortase A [1]) of 2.8 µM and an MIC (Staphylococcus aureus) greater than 128 mg/L.
For `O=C1NC(=O)C(=C/C=C/c2ccc(OC(=O)[C@H](CO)NC(=O)OCc3ccccc3)cc2)C(=O)N1`, the IC50 (Sortase A [1]) was 2.5 µM and the MIC (Staphylococcus aureus) was greater than 128 mg/L.
Compound `O=C1NC(=O)C(=C/C=C/c2ccccc2Cl)C(=O)N1` has an IC50 (Sortase A [1]) of 2.1 µM and an MIC (Staphylococcus aureus) of 128 mg/L (≈ 463 µM).
In the case of `O=C1NC(=O)C(=C/C=C/c2ccc(Cl)cc2)C(=O)N1`, the IC50 (Sortase A [1]) is reported as 1 µM and the MIC (Staphylococcus aureus) is reported as 128 mg/L (≈ 463 µM).
For `O=C1NC(=O)C(=C/C=C/c2ccc(OCc3ccncc3)cc2)C(=O)N1`, the IC50 (Sortase A [1]) was greater than 50 µM and the MIC (Staphylococcus aureus) was greater than 128 mg/L.
`COc1ccc(COc2ccc(/C=C/C=C3C(=O)NC(=O)NC3=O)cc2)cc1` gave an IC50 (Sortase A [1]) of 1.6 µM and an MIC (Staphylococcus aureus) greater than 128 mg/L.
Work on `COc1cccc(/C=C/C=C2C(=O)NC(=O)NC2=O)c1` yielded an IC50 (Sortase A [1]) of 2.1 µM and an MIC (Staphylococcus aureus) of 128 mg/L (≈ 470 µM).
In the case of `CC(=O)Oc1ccc(COc2ccc(/C=C/C=C3C(=O)NC(=O)NC3=O)cc2)cc1`, the IC50 (Sortase A [2]) is reported as 16.1 µM, the IC50 (Sortase A [1]) is reported as 0.8 µM and the MIC (Staphylococcus aureus) is reported as greater than 128 mg/L.
With `N#Cc1ccc(COc2ccc(/C=C/C=C3C(=O)NC(=O)NC3=O)cc2)cc1` the IC50 (Sortase A [1]) was 0.7 µM and the MIC (Staphylococcus aureus) was greater than 128 mg/L.
Compound `O=C1NC(=O)C(=C/C=C/c2ccc(OCc3ccc(Cl)cc3)cc2)C(=O)N1` has an IC50 (Sortase A [1]) of 2.5 µM and an MIC (Staphylococcus aureus) greater than 128 mg/L.
`O=C1NC(=O)C(=C/C=C/c2ccc(F)cc2)C(=O)N1` was tested, and the IC50 (Sortase A [2]) was 7.4 µM, the IC50 (Sortase A [1]) was 1.3 µM and the MIC (Staphylococcus aureus) was greater than 128 mg/L.
In the case of `O=C1NC(=O)C(=CNc2ccc(Br)cc2)C(=O)N1`, the IC50 (Sortase A [1]) is reported as greater than 50 µM and the MIC (Staphylococcus aureus) is reported as greater than 128 mg/L.
